O=P(c1ccccc1)(c1ccccc1)c1ccccc1
Conditions | solubility (mole fraction)
in benzene, 293.78 K | 0.055
in benzene, 303.04 K | 0.0747
in benzene, 314.12 K | 0.0963
in benzene, 323.34 K | 0.123
in benzene, 333.45 K | 0.152
in ethyl acetate, 294.54 K | 0.023
in ethyl acetate, 299.09 K | 0.0275
in ethyl acetate, 303.3 K | 0.0305
in ethyl acetate, 308.27 K | 0.0348
in ethyl acetate, 313.72 K | 0.0409
in ethyl acetate, 318.32 K | 0.0496
in ethyl acetate, 323.21 K | 0.0555
in ethyl acetate, 328.65 K | 0.0659
in toluene, 294.42 K | 0.0291
in toluene, 298.74 K | 0.0346
in toluene, 303.15 K | 0.0396
in toluene, 308.36 K | 0.0487
in toluene, 313.53 K | 0.0548
in toluene, 317.97 K | 0.0666
in toluene, 323.13 K | 0.0768
in toluene, 328.42 K | 0.0882
in toluene, 333.77 K | 0.0998

From BigSolDB 2.1
